The results in this text go back to patent publication US20260092086A1, “ANTIMICROBIAL LASSO PEPTIDES” (priority 2022, published 2026).

≈ marks a conversion by molar mass, not a printed value. Where “and” joins values, the source holds several entries; their conditions need not be identical. Equal entries are not always repeated. Where a SMILES comes first, the peptide text is derived from it.

For series [1] the following is noted: 18 μM in pure water, 37° C., 72 hours (3 days). As to the method: A 200 μL sample of purified ˜18 μM cloacaenodin in water was incubated at 37° C. for 72 hours. 30 μL of the sample was injected on LC-MS at 24-hour increments.
The target in a further series is T1, Thermolysin (Geobacillus stearothermophilus, UniProt P43133).
T1 construct: purchased Sigma-Aldrich
As to the kind of experiment: Protease digestion, thermolysin. It counts as in vitro ADME. The conditions noted are these: 50 μM peptide, 30° C., about 1 hour, LC-MS. Here is the method: Thermolysin from Geobacillus stearothermophilus (Sigma-Aldrich) was first resuspended in 50 mM Tris, 0.5 mM CaCl2). The enzyme was then added to 50 μM peptide samples at a final concentration of about 0.04 mg/mL in a buffer of 50 mM Tris, 0.5 mM CaCl2), pH 8. The reactions were then allowed to incubate at 30° C. for about 1 hour before quenching with 1% formic acid. An aliquot was then injected onto LC-MS for analysis.

In series [2] the test system is Enterobacter nimipressuralis DSM 18955. It counts as cell-based.
Series [3] can be described thus: Stability of NMR sample kept at 4° C., LC-MS before and after acquisition. It counts as physicochemical. To be noted: 95:5 H2O:D2O. As to the method:
The structure of cloacaenodin in water was determined using two-dimensional (2D) nuclear magnetic resonance (NMR) analysis, a technique that has been successfully used to show the threaded shape of lasso peptides.^51 The possibility of cloacaenodin unthreading during the NMR acquisition was addressed by keeping the sample at 4° C. throughout acquisition. […] As an additional control, one-dimensional (1D) NMR spectra were acquired in between each 2D NMR spectrum acquisition to ensure stability of the sample (FIG. 12).
NMR studies were performed at the Princeton University Department of Chemistry NMR Facilities using a Bruker Avance III HD 800 MHz NMR spectrometer. Purified cloacaenodin was prepared at a concentration of 6.7 mg/mL (2.6 mM) in 95:5 H2O:D2O. The NMR spectra were acquired at 4° C. to minimize any cloacaenodin unthreading. A ^1H-^1H TOCSY spectrum at a mixing time of 80 ms was acquired, as well as 1H-1H NOESY spectra at 150 ms and 300 ms. Water suppression was used in the collection of all NMR data. To verify that the lasso peptide was not undergoing unthreading, 1D 1H NMR data were collected in between each 2D NMR acquisition and analyzed to see that the 1D spectra stayed consistent. […]

Series [4] relates to Enterobacter hormaechei ATCC 700323. As to the kind of experiment: Spot-on-lawn assay in M63 agar. It counts as cell-based. The conditions noted are these: purified cloacaenodin in water. Here is the method: (§1) Cloacaenodin was evaluated against several common laboratory strains as well as commercially acquired strains using a spot-on-lawn assay.^45 Strains were streaked out onto LB agar plates and incubated overnight at their recommended temperatures. A single colony was then used to inoculate an overnight culture in 5 mL of LB broth. After shaking at 250 rpm at the recommended temperature for each strain, 50 μL of the overnight culture was used to inoculate 5 mL of LB broth (volume ratio 1:100). These cultures were grown for a few hours until they reached the exponential phase (OD600˜0.4-0.6) before being added to 10 mL of soft M63 agar at a final cell density of 10^7 CFUs/mL, or 10^8 CFUs total in 10 mL. The M63 soft agar was composed of 2 g/L of (NH4)2SO4 (EMD MilliporeSigma), 13.6 g/L of KH2PO4 (Fisher), 40 mg/L of each of the 20 common amino acids, 0.2% glucose (Sigma), 0.00005% w/v thiamine hydrochloride (Sigma), and 0.65% w/v bacteriological-grade agar (Apex Bioresearch). […] Upon solidification, 10 μL of purified cloacaenodin in water at two-fold dilutions were then spotted onto the agar and allowed to dry. The plates were incubated overnight at the strains' recommended temperatures and analyzed the next morning for activity. The MIC is defined as the last dilution where a spot was visible.

For series [5], the system named is Klebsiella aerogenes ATCC 13048. As to the kind of experiment: Spot-on-lawn assay in M63 agar. It counts as cell-based. To be noted: purified cloacaenodin in water. As to the method:
as §1

Series [6] concerns Salmonella enterica serovar Newport. As to the kind of experiment: Spot-on-lawn assay in M63 agar. It counts as cell-based. To be noted: purified cloacaenodin in water. As to the method:
as §1

Series [7] has as its system Enterobacter nimipressuralis DSM 18955. As to the kind of experiment: Spot-on-lawn assay in M63 agar. It counts as cell-based. Here is the method: as §1
Series [8] concerns Enterobacter kobei BAA-260. As to the kind of experiment: Spot-on-lawn assay in M63 agar. It counts as cell-based. To be noted: purified cloacaenodin in water. As to the method:
as §1

T1 sequence (P43133 236-551): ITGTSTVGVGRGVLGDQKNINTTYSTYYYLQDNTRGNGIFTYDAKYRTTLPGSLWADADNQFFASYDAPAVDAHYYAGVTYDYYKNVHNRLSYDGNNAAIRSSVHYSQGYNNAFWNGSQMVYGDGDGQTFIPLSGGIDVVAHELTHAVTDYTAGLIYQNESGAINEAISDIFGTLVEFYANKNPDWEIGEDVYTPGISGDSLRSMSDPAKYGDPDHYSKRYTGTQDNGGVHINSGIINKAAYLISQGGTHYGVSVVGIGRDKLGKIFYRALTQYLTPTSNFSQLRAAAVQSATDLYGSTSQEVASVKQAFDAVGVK

In the case of `CC[C@H](C)[C@@H]1NC(=O)[C@H](CCCNC(=N)N)NC(=O)[C@H](CC(=O)O)NC(=O)[C@H](C(C)C)NC(=O)[C@H](CO)NC(=O)[C@H](Cc2c[nH]cn2)NC(=O)CNC(=O)CC[C@@H](C(=O)N[C@@H](Cc2ccc(O)cc2)C(=O)N[C@@H](Cc2ccccc2)C(=O)NCC(=O)N2CCC[C@H]2C(=O)N2CCC[C@H]2C(=O)NCC(=O)N[C@@H](CC(C)C)C(=O)N2CCC[C@H]2C(=O)NCC(=O)N2CCC[C@H]2C(=O)N[C@H](C(=O)N[C@@H](CC(C)C)C(=O)N[C@@H](Cc2ccccc2)C(=O)N[C@@H](Cc2ccc(O)cc2)C(=O)N[C@@H](CO)C(=O)O)C(C)C)NC(=O)[C@@H]2CCCN2C1=O` [cloacaenodin] (HELM PEPTIDE1{G.H.S.V.D.R.I.P.E.Y.F.G.P.P.G.L.P.G.P.V.L.F.Y.S}$PEPTIDE1,PEPTIDE1,1:R1-9:R3$$$V2.0; C-terminus assumed), the “fraction remaining threaded (relative peak area on LC-MS)” value in series [1] was ~83% and > 80%. Moreover, the proteolysis by thermolysin entry at Thermolysin (listed as Threaded cloacaenodin) is given as “resistant to thermolysin digestion”; at Thermolysin (listed as threaded cloacaenodin), “remained resistant to proteolysis”. In addition, the “MIC in M63 media” value in series [2] is 0.94 µM (≈ 2.43 µg/mL). The “threaded state after NMR acquisition” value in series [3] is “remained threaded”. Further, the “antimicrobial activity (zones of inhibition)” value in [4] is reported as “no observed activity”; in series [5], “no observed activity”; in [6], “no observed activity”; in series [7] (spot-on-lawn, M63 agar, purified cloacaenodin in water), “zones of inhibition in the low micromolar range”; in series [8], “no observed activity”. Moreover, in series [7] (Lelliottia nimipressuralis DSM 18955), the “strain susceptible to cloacaenodin” value was “* Lelliottia nimipressuralis”.
